Results published in the NIST ThermoML archive (doi:10.1021/je500772z).

Test: osmotic coefficient (dimensionless); mn = molality of the nth substance listed, in mol/kg
Conditions: 298.15 K, Liquid, isopiestic method

CC(C)C[C@H](N)C(=O)[O-].CCCCn1cc[n+](C)c1 [1-butyl-3-methylimidazolium L-leucinate] + O
Conditions	osmotic coefficient
m1 = 0	1
m1 = 0.0117	0.9528
m1 = 0.0184	0.9362
m1 = 0.0387	0.9254
m1 = 0.0649	0.9104
m1 = 0.0795	0.9093
m1 = 0.1123	0.9025
m1 = 0.1532	0.8977
m1 = 0.1914	0.8982
m1 = 0.2319	0.9005
m1 = 0.2687	0.9029
m1 = 0.3111	0.9101
m1 = 0.3711	0.9187
m1 = 0.4373	0.9255
m1 = 0.4915	0.9328
m1 = 0.5503	0.9423

CC(C)[C@H](N)C(=O)[O-].CCCCn1cc[n+](C)c1 [1-butyl-3-methylimidazolium L-valinate] + O
Conditions	osmotic coefficient
m1 = 0	1
m1 = 0.013	0.9595
m1 = 0.0202	0.9384
m1 = 0.0421	0.923
m1 = 0.0582	0.9121
m1 = 0.0723	0.9019
m1 = 0.1086	0.8899
m1 = 0.1458	0.8851
m1 = 0.1932	0.8794
m1 = 0.2434	0.8759
m1 = 0.2848	0.879
m1 = 0.3283	0.8828
m1 = 0.4013	0.8908
m1 = 0.4421	0.8986
m1 = 0.5035	0.9098
m1 = 0.576	0.9279

CCCCn1cc[n+](C)c1.NCC(=O)[O-] [1-butyl-3-methylimidazolium glycinate] + O
Conditions	osmotic coefficient
m1 = 0	1
m1 = 0.0179	0.941
m1 = 0.0266	0.9408
m1 = 0.0509	0.9167
m1 = 0.0737	0.9076
m1 = 0.0978	0.8916
m1 = 0.1314	0.8739
m1 = 0.1811	0.8658
m1 = 0.2166	0.853
m1 = 0.263	0.8465
m1 = 0.3181	0.8432
m1 = 0.3693	0.8407
m1 = 0.4305	0.8405
m1 = 0.5055	0.8474
m1 = 0.5791	0.8523
m1 = 0.6439	0.8526

CCCCn1cc[n+](C)c1.C[C@H](N)C(=O)[O-] [3-butyl-1-methyl-1H-imidazolium L-alaninate] + O
Conditions	osmotic coefficient
m1 = 0	1
m1 = 0.0134	0.9617
m1 = 0.0183	0.9405
m1 = 0.0416	0.9262
m1 = 0.0612	0.9103
m1 = 0.0821	0.9008
m1 = 0.109	0.8865
m1 = 0.1518	0.8725
m1 = 0.1962	0.8661
m1 = 0.242	0.8654
m1 = 0.2834	0.863
m1 = 0.3192	0.8594
m1 = 0.3741	0.8633
m1 = 0.4453	0.8672
m1 = 0.5047	0.8715
m1 = 0.5755	0.8812
